Reference: article PMC7047428 (ACS Central Science, 2020)
pEC50: −log10 of the molar value.

Legend:
D2R WT [1] = target: T1, D2R WT (Homo sapiens, UniProt P14416); test: Split luciferase GloSensor cAMP assay, activation of Gi protein; type: cell-based; conditions: for G protein EC50: wild type D2R, HEK 293T, cAMP GloSensor
D2R WT [2] = target: T1, D2R WT; test: Tango arrestin recruitment assay; type: cell-based; conditions: wild type D2R, HTLA cells

T1 sequence (P14416 whole entry): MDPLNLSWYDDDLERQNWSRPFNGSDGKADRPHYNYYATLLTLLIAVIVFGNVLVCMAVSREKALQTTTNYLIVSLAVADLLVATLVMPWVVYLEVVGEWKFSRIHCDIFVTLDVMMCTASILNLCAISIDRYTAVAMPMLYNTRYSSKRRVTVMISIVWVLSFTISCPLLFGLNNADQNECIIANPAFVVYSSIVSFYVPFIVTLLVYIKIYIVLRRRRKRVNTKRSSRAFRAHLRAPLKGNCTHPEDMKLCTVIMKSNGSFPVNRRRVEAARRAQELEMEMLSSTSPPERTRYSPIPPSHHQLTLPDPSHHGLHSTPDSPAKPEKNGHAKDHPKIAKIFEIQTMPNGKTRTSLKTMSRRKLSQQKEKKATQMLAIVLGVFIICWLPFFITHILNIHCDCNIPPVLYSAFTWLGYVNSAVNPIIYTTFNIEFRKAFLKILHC

pEC50 (D2R WT [1]) | β-arrestin EC50 (D2R WT [2]) | G protein EC50 (D2R WT [1]) | SMILES
7.73 |  |  | Oc1c(CN2CCN(c3ccccn3)CC2)cc(F)c2cccnc12 [MLS-d1, 5-Fluoro-7-((4-(pyridin-2-yl)piperazin-1-yl)methyl)quinolin-8-ol]
7.02 |  |  | Oc1c(CN2CCN(c3ccccn3)CC2)ccc2cccnc12 [MLS-d2, 7-((4-(Pyridin-2-yl)piperazin-1-yl)methyl)quinolin-8-ol]
 | completely inactive | completely inactive | Oc1c(CN2CCN(c3ccccn3)CC2)cc(Br)c2cccnc12 [MLS-d3, 5-Bromo-7-((4-(pyridin-2-yl)piperazin-1-yl)methyl)quinolin-8-ol]
 | did not show activation | did not show activation | O=[N+]([O-])c1cc(CN2CCN(c3ccccn3)CC2)c(O)c2ncccc12 [MLS-d4, 5-Nitro-7-((4-(pyridin-2-yl)piperazin-1-yl)methyl)quinolin-8-ol]
